Test system: male and female Sprague–Dawley rats
Assay: 90-day subchronic oral gavage toxicity study
Type: in vivo, rat
Method in brief: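 Rats dosed daily by oral gavage in corn oil (3 mL/kg) for 90 days, five dose levels plus control, n = 10/sex/group, euthanized SD 91. Endpoints: clinical observation, bodyweight, feed intake, FOB/locomotor activity, ophthalmology, terminal hematology, serum chemistry, coagulation, plasma parent PFAS, organ weights, histopathology. Groups vs control by ANOVA/Dunnett's (p<0.05).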

In the case of FC(F)(F)C(F)(F)C(F)(F)C(F)(F)CCI [PFHI, 1H,1H,2H,2H-Perfluorohexyl iodide], the “Liver/Brain Weight” value (female, 200 mg/kg-day) is reported as 481%, the MPV (female, 200 mg/kg-day) is reported as 7.68 ± 0.44 fL and the PT (female, 200 mg/kg-day) is reported as 13.98 s. For the same compound, the “Total BW change” value (female, 200 mg/kg-day) was 108.57 g, the “Total Food Consumed” value (female, 200 mg/kg-day) was 1566 g and the “BMD10, absolute kidney weight increase” value (male) was 122 mg/kg-day. The “BMD10, relative kidney weight increase” value (male) was 69.7 mg/kg-day, the “BMDL, absolute kidney weight increase” value (male) was 83.8 mg/kg-day and the “BMDL, relative kidney weight increase” value (male) was 56.6 mg/kg-day. The “LOEL, absolute kidney weight increase” value (male) was 200 mg/kg-day, the “LOEL, absolute liver weight increase” value (male) was 100 mg/kg-day and the “LOEL, relative kidney weight increase” value (male) was 100 mg/kg-day. The “LOEL, relative liver weight increase” value (male) was 25 mg/kg-day, the “NOEL, absolute kidney weight increase” value (male) was 100 mg/kg-day and the “NOEL, absolute liver weight increase” value (male) was 50 mg/kg-day. The “NOEL, relative kidney weight increase” value (male) was 50 mg/kg-day, the “NOEL, relative liver weight increase” value (male) was 12.5 mg/kg-day and the “% BW Gain” value (male, 12.5 mg/kg-day) was 114.45%. The “% Diff, % BW Gain” value (male, 12.5 mg/kg-day) was 0.87%, the “% Diff, Total BW change” value (male, 12.5 mg/kg-day) was -1.78% and the “% Diff, Total Food Consumed” value (male, 12.5 mg/kg-day) was -6.69%. It also gave an A/G (male, 12.5 mg/kg-day) of 0.91±0.04 ratio, an ALB (male, 12.5 mg/kg-day) of 3.42 ± 0.25 g/dL and an ALPi (male, 12.5 mg/kg-day) of 102.9±14.1 U/L. For the same compound, the APTT (male, 12.5 mg/kg-day) was 23.37 s, the BUN (male, 12.5 mg/kg-day) was 14.8 ± 2.0 mg/dL and the CHOL (male, 12.5 mg/kg-day) was 87.5 ± 9.2 mg/dL. It also gave a GLOB (male, 12.5 mg/kg-day) of 3.77 ± 0.18 g/dL, a GLUC (male, 12.5 mg/kg-day) of 199.1 ± 29.5 mg/dL and an HCT (male, 12.5 mg/kg-day) of 51.12±1.63%. The HGB (male, 12.5 mg/kg-day) was 15.92 ± 0.40 g/dL, the “Kidney Weight” value (male, 12.5 mg/kg-day) was 3.04 g and the “Kidney/Body Weight” value (male, 12.5 mg/kg-day) was 0.51%. For the same compound, the “Kidney/Brain Weight” value (male, 12.5 mg/kg-day) was 140%, the “Liver Weight” value (male, 12.5 mg/kg-day) was 15.35 g and the “Liver/Body Weight” value (male, 12.5 mg/kg-day) was 2.59%. For the same compound, the “Liver/Brain Weight” value (male, 12.5 mg/kg-day) was 706%, the MPV (male, 12.5 mg/kg-day) was 7.20 ± 0.26 fL and the PT (male, 12.5 mg/kg-day) was 14.91 s. For the same compound, the “Total BW change” value (male, 12.5 mg/kg-day) was 319.83 g, the “Total Food Consumed” value (male, 12.5 mg/kg-day) was 2217 g and the “% BW Gain” value (male, 25 mg/kg-day) was 112.88%. For the same compound, the “% Diff, % BW Gain” value (male, 25 mg/kg-day) was -0.52%, the “% Diff, Total BW change” value (male, 25 mg/kg-day) was -1.33% and the “% Diff, Total Food Consumed” value (male, 25 mg/kg-day) was -4.60%. For the same compound, the A/G (male, 25 mg/kg-day) was 0.88±0.10 ratio, the ALB (male, 25 mg/kg-day) was 3.35 ± 0.14 g/dL and the ALPi (male, 25 mg/kg-day) was 112.3±29.5 U/L. The APTT (male, 25 mg/kg-day) was 29.06 s, the BUN (male, 25 mg/kg-day) was 15.3 ± 2.1 mg/dL and the CHOL (male, 25 mg/kg-day) was 101.5 ± 15.8 mg/dL. The GLOB (male, 25 mg/kg-day) was 3.84 ± 0.36 g/dL, the GLUC (male, 25 mg/kg-day) was 204.5 ± 34.6 mg/dL and the HCT (male, 25 mg/kg-day) was 50.59±1.92%. The HGB (male, 25 mg/kg-day) was 15.67 ± 0.55 g/dL, the “Kidney Weight” value (male, 25 mg/kg-day) was 3.20 g and the “Kidney/Body Weight” value (male, 25 mg/kg-day) was 0.54%. The “Kidney/Brain Weight” value (male, 25 mg/kg-day) was 147%, the “Liver Weight” value (male, 25 mg/kg-day) was 16.98 g and the “Liver/Body Weight” value (male, 25 mg/kg-day) was 2.85%. For the same compound, the “Liver/Brain Weight” value (male, 25 mg/kg-day) was 780%, the MPV (male, 25 mg/kg-day) was 7.13 ± 0.21 fL and the PT (male, 25 mg/kg-day) was 14.69 s. The “Total BW change” value (male, 25 mg/kg-day) was 321.29 g, the “Total Food Consumed” value (male, 25 mg/kg-day) was 2266 g and the “% BW Gain” value (male, 50 mg/kg-day) was 108.23%. The “% Diff, % BW Gain” value (male, 50 mg/kg-day) was -4.61%, the “% Diff, Total BW change” value (male, 50 mg/kg-day) was -5.67% and the “% Diff, Total Food Consumed” value (male, 50 mg/kg-day) was -6.15%. It also gave an A/G (male, 50 mg/kg-day) of 0.91±0.04 ratio, an ALB (male, 50 mg/kg-day) of 3.41 ± 0.12 g/dL and an ALPi (male, 50 mg/kg-day) of 103.3±31.6 U/L. It also gave an APTT (male, 50 mg/kg-day) of 20.03 s, a BUN (male, 50 mg/kg-day) of 15.4 ± 1.8 mg/dL and a CHOL (male, 50 mg/kg-day) of 100.2 ± 18.8 mg/dL. It also gave a GLOB (male, 50 mg/kg-day) of 3.74 ± 0.13 g/dL, a GLUC (male, 50 mg/kg-day) of 196.8 ± 40.7 mg/dL and an HCT (male, 50 mg/kg-day) of 49.78±1.69%. The HGB (male, 50 mg/kg-day) was 15.53 ± 0.59 g/dL, the “Kidney Weight” value (male, 50 mg/kg-day) was 3.25 g and the “Kidney/Body Weight” value (male, 50 mg/kg-day) was 0.56%. The “Kidney/Brain Weight” value (male, 50 mg/kg-day) was 143.1%, the “Liver Weight” value (male, 50 mg/kg-day) was 17.05 g and the “Liver/Body Weight” value (male, 50 mg/kg-day) was 2.92%. The “Liver/Brain Weight” value (male, 50 mg/kg-day) was 754%, the MPV (male, 50 mg/kg-day) was 7.30 ± 0.36 fL and the PT (male, 50 mg/kg-day) was 15.14 s. For the same compound, the “Total BW change” value (male, 50 mg/kg-day) was 307.16 g, the “Total Food Consumed” value (male, 50 mg/kg-day) was 2229 g and the “% BW Gain” value (male, 100 mg/kg-day) was 106.43%. For the same compound, the “% Diff, % BW Gain” value (male, 100 mg/kg-day) was -6.20%, the “% Diff, Total BW change” value (male, 100 mg/kg-day) was -9.44% and the “% Diff, Total Food Consumed” value (male, 100 mg/kg-day) was -5.67%. For the same compound, the A/G (male, 100 mg/kg-day) was 0.87±0.20 ratio, the ALB (male, 100 mg/kg-day) was 3.34 ± 0.53 g/dL and the ALPi (male, 100 mg/kg-day) was 103.2±19.1 U/L. For the same compound, the APTT (male, 100 mg/kg-day) was 26.73 s, the BUN (male, 100 mg/kg-day) was 15.7 ± 3.2 mg/dL and the CHOL (male, 100 mg/kg-day) was 112.4 ± 25.0 mg/dL. For the same compound, the GLOB (male, 100 mg/kg-day) was 3.97 ± 0.63 g/dL, the GLUC (male, 100 mg/kg-day) was 171.8 ± 39.0 mg/dL and the HCT (male, 100 mg/kg-day) was 50.60±2.40%. The HGB (male, 100 mg/kg-day) was 15.71 ± 0.74 g/dL, the “Kidney Weight” value (male, 100 mg/kg-day) was 3.38 g and the “Kidney/Body Weight” value (male, 100 mg/kg-day) was 0.60%. The “Kidney/Brain Weight” value (male, 100 mg/kg-day) was 156%, the “Liver Weight” value (male, 100 mg/kg-day) was 18.32 g and the “Liver/Body Weight” value (male, 100 mg/kg-day) was 3.24%. For the same compound, the “Liver/Brain Weight” value (male, 100 mg/kg-day) was 843%, the MPV (male, 100 mg/kg-day) was 7.22 ± 0.38 fL and the PT (male, 100 mg/kg-day) was 15.16 s. The “Total BW change” value (male, 100 mg/kg-day) was 294.89 g, the “Total Food Consumed” value (male, 100 mg/kg-day) was 2241 g and the “% BW Gain” value (male, 200 mg/kg-day) was 100.73%. The “% Diff, % BW Gain” value (male, 200 mg/kg-day) was -11.23%, the “% Diff, Total BW change” value (male, 200 mg/kg-day) was -14.29% and the “% Diff, Total Food Consumed” value (male, 200 mg/kg-day) was -8.27%. It also gave an A/G (male, 200 mg/kg-day) of 0.91±0.04 ratio, an ALB (male, 200 mg/kg-day) of 3.55 ± 0.21 g/dL and an ALPi (male, 200 mg/kg-day) of 117.5±29.4 U/L. It also gave an APTT (male, 200 mg/kg-day) of 25.80 s, a BUN (male, 200 mg/kg-day) of 16.5 ± 2.0 mg/dL and a CHOL (male, 200 mg/kg-day) of 149.1 ± 27.7 mg/dL. For the same compound, the GLOB (male, 200 mg/kg-day) was 3.92 ± 0.23 g/dL, the GLUC (male, 200 mg/kg-day) was 163.2 ± 18.4 mg/dL and the HCT (male, 200 mg/kg-day) was 47.32±1.57%. The HGB (male, 200 mg/kg-day) was 14.88 ± 0.44 g/dL, the “Kidney Weight” value (male, 200 mg/kg-day) was 3.60 g and the “Kidney/Body Weight” value (male, 200 mg/kg-day) was 0.66%. For the same compound, the “Kidney/Brain Weight” value (male, 200 mg/kg-day) was 168%, the “Liver Weight” value (male, 200 mg/kg-day) was 20.17 g and the “Liver/Body Weight” value (male, 200 mg/kg-day) was 3.70%. The “Liver/Brain Weight” value (male, 200 mg/kg-day) was 944%, the MPV (male, 200 mg/kg-day) was 7.33 ± 0.31 fL and the PT (male, 200 mg/kg-day) was 15.32 s. The “Total BW change” value (male, 200 mg/kg-day) was 279.08 g and the “Total Food Consumed” value (male, 200 mg/kg-day) was 2179 g.
